As a reminder, the solubility is how much of the substance goes into solution per volume. A higher solubility goes with much dissolved substance.

The results in this text go back to article PMC12771125, “Compounds Reducing Human Sperm Motility as Potential Nonhormonal Contraceptives Identified Using a High-Throughput Phenotypic Screening Platform” (ACS Omega, 2025).

A short description of series [1]: Aqueous solubility. In kind it is physicochemical.
For series [2], the system named is human sperm. As to the kind of experiment: Reduction of sperm motility (RSM) high-throughput phenotypic assay. The series is classed as cell-based. The following applies: Homo sapiens, reduction of progressive sperm motility relative to control. The method in brief:
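Pooled human sperm from at least 3 normozoospermic donors were prepared by discontinuous density gradient centrifugation and incubated for 3 h at 37 °C under noncapacitating conditions. About 10,000 spermatozoa (20 μL) were dispensed into each well of 384-well plates holding compound. A Yokogawa CV7000 recorded time-lapse images, and Trackpy tracking measured progressive motility as a percentage of in-plate DMSO controls.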

The test system of series [3] is HepG2 cells. Kind of series: HepG2 cytotoxicity assay (resazurin, 72 h). In kind it is cell-based, human. The following applies: Homo sapiens, HepG2, 72 h; read-out: HepG2 pEC50 (converted). The method in brief: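 HepG2 cells in MEM with glutamax and 10% FCS exposed to compounds for 72 h; resazurin (45 μM final) added for a further 4 h, fluorescence read at ex 528/em 590 nm. Data normalized to controls as % growth; pEC50 is the mean of duplicate curves.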

Setting [4] is: 10 min, 10 min incubation, reported <X (neg. log of top concentration) if largest reduction <70%, read-out: RSM pEC50 10 mins (converted).
Where [5] appears, read: 3 h incubation, reported <X if largest reduction <70%, read-out: RSM pEC50 3 hrs (converted).
Setting [6] is: 6 h incubation, reported <X if largest reduction <70%, read-out: RSM pEC50 6 hrs (converted).

Values after ≈ are worked out from the molar mass of the structure shown. Read-outs that look alike come from different tables or passages of the source. Where only a bound is given, the exact number is not on record here.

Consider `Cc1cc(C)nc(-n2nc(C)cc2NC(=O)c2ccccc2)n1` [Compound 6d], for which, in series [1], the concentration in solution (solubility) came to 15 µM (≈ 4.61 µg/mL). The EC50 in series [2] (setting [4]) was above 31.6 µM; in series [2] (setting [5]), above 31.6 µM; in series [2] (setting [6]), above 31.6 µM; in series [3], above 100 µM.

As for `Cc1cc(NC(=O)c2ccccc2)n(-c2ccccc2)n1` [Compound 6e], in series [1], the solubility turned out to be 240 µM (≈ 66.6 µg/mL). Moreover, the EC50 is above 31.6 µM in series [2] (setting [4]), above 31.6 µM in series [2] (setting [5]), above 31.6 µM in series [2] (setting [6]) and above 100 µM in series [3].

Take `c1ccc(-c2cc(N3CCCCC3)c3ccccc3n2)nc1` [Compound 7a, 4-(Piperidin-1-yl)-2-(pyridin-2-yl)quinoline]: in series [1], the concentration in solution (solubility) was 10 µM (≈ 2.89 µg/mL). Besides, the EC50 was above 25.1 µM in series [2] (setting [4]), above 25.1 µM in series [2] (setting [5]), 1.58 µM in series [2] (setting [6]) and above 100 µM in series [3].

Turning to `c1ccc(-c2cc(N3CCCCC3)c3ccccc3n2)cc1` [Compound 7b], in series [1], the solubility is 0.6 µM (≈ 0.173 µg/mL). Further, the EC50 was above 31.6 µM in series [2] (setting [4]), above 31.6 µM in series [2] (setting [5]), above 31.6 µM in series [2] (setting [6]) and above 100 µM in series [3].

`c1cncc(-c2cc(N3CCCCC3)c3ccccc3n2)c1` [Compound 7c]: in series [1], the solubility was found to be 57 µM (≈ 16.5 µg/mL). In addition, the EC50 in series [2] (setting [4]) is above 31.6 µM; in series [2] (setting [5]) it was above 31.6 µM; in series [2] (setting [6]) it was above 31.6 µM; in series [3], above 100 µM.

Consider `c1ccc2c(N3CCCCC3)cc(N3CCOCC3)nc2c1` [Compound 7d], for which the solubility in series [1] came to 140 µM (≈ 41.6 µg/mL). The EC50 is above 31.6 µM in series [2] (setting [4]), above 31.6 µM in series [2] (setting [5]), above 31.6 µM in series [2] (setting [6]) and above 100 µM in series [3].

In series [1], `c1ccc2c(N3CCCCC3)cc(N3CCCCC3)nc2c1` [Compound 7e] displayed a solubility of 8.1 µM (≈ 2.39 µg/mL). For the same compound, the EC50 is above 31.6 µM in series [2] (setting [4]), above 31.6 µM in series [2] (setting [5]), above 31.6 µM in series [2] (setting [6]) and above 100 µM in series [3].

On to `c1ccc2c(N3CCCCC3)cc(N3CCCC3)nc2c1` [Compound 7f], for which the solubility in series [1] stood at 220 µM (≈ 61.9 µg/mL). Besides, the EC50 in series [2] (setting [4]) is above 31.6 µM; in series [2] (setting [5]), above 31.6 µM; in series [2] (setting [6]), above 31.6 µM; in series [3], 50.1 µM.

As to `CN1CCN(c2cc(N3CCCCC3)c3ccccc3n2)CC1` [Compound 7g], the solubility in series [1] amounted to 210 µM (≈ 65.2 µg/mL). In addition, the EC50 in series [2] (setting [4]) was above 31.6 µM; in series [2] (setting [5]) it was above 31.6 µM; in series [2] (setting [6]), above 31.6 µM; in series [3], 50.1 µM.
